Test results: ChEMBL document CHEMBL5584243, “Discovery of JNJ-74856665: A Novel Isoquinolinone DHODH Inhibitor for the Treatment of AML” (J Med Chem, 2024); call rule not given here
≈ marks a conversion by molar mass, not a printed value.

How the values were obtained:
MOLM-13 [1] = assay: Antitumor activity against human MOLM-13 cells xenografted in NSG mouse assessed as tumor growth inhibition at 0.125 mg/kg,po administrated daily for 10 days relative to control; format: functional; conditions: MOLM-13, 240 h, time 10 day, read-out: TGI
[2] = Lipophilicity, logD of compound; format: physicochemical; conditions: octanol/water
[3] = Metabolic stability in dog liver microsomes assessed as half life incubated upto 60 mins in presence of NADPH by LC-MS/MS analysis; format: ADME, Canis lupus familiaris, Microsome
[4] = Equilibrium solubility of compound in SGF at pH 1 using crystalline form incubated for 2 to 5 days by HPLC analysis; format: ADME; conditions: time 2-5 day
[5] = Oral bioavailability in cynomolgus monkey at 10 mg/kg; format: ADME, organism-based, Macaca fascicularis; conditions: in vivo
[6] = Cmax in C57BL mouse at […] measured upto 24 hrs by LC-MS/MS analysis; format: ADME, organism-based; conditions: in vivo
[7] = Metabolic stability in rat liver microsomes assessed as half life incubated upto 60 mins in presence of NADPH by LC-MS/MS analysis; format: ADME, Microsome
[8] = Half life in dog hepatocyte; format: ADME, cell-based, Canis lupus familiaris; conditions: hepatocytes
MOLM-13 [9] = assay: Antitumor activity against human MOLM-13 cells xenografted in NSG mouse assessed as tumor growth inhibition at 0.062 mg/kg,po administrated daily for 10 days relative to control; format: functional; conditions: MOLM-13, 240 h, time 10 day, read-out: TGI
[10] = biological target: Dihydroorotate dehydrogenase (quinone), mitochondrial (Homo sapiens, UniProt Q02127); assay: Binding affinity to recombinant human DHODH assessed as dissociation constant by surface plasmon resonance assay
Sequence of Dihydroorotate dehydrogenase (quinone), mitochondrial (Q02127 whole entry): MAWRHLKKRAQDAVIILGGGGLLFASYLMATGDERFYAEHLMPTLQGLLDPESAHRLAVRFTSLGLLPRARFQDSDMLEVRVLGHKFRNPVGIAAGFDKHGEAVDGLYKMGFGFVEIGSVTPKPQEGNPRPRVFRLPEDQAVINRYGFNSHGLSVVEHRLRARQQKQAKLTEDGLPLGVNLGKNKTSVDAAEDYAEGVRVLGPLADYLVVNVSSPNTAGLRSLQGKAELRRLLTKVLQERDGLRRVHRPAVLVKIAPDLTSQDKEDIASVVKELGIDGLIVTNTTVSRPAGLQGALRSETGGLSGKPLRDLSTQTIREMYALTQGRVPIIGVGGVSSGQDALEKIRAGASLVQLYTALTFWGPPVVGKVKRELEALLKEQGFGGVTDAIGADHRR

[11] = Plasma protein binding in human at 1 uM incubated for 6.5 hrs by LC-MS/MS analysis; format: ADME, cell-free; conditions: read-out: PPB (converted)
[12] = Half life in human hepatocyte; format: ADME, cell-based; conditions: hepatocytes
[13] = Metabolic stability in monkey liver microsomes assessed as half life incubated upto 60 mins in presence of NADPH by LC-MS/MS analysis; format: ADME, Macaca mulatta, Microsome; conditions: rhesus monkey
PXR (NR1I2) [14] = biological target: T1, PXR (NR1I2) (Homo sapiens, UniProt O75469); assay: Activation of PXR (unknown origin) assessed as fold change at 1 uM relative to control; format: ADME; conditions: read-out: FC
T1 sequence (O75469 whole entry): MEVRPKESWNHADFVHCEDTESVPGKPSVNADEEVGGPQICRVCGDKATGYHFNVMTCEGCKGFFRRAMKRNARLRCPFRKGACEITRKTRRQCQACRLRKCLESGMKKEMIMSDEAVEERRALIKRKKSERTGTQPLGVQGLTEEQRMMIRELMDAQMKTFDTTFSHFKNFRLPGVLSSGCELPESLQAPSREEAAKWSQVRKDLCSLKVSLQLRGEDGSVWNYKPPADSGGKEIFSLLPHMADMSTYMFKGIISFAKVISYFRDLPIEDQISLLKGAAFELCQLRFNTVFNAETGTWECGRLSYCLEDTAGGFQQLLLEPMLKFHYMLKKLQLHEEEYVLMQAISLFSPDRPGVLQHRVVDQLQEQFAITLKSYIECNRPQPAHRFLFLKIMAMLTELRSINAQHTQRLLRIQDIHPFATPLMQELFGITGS

[15] = Passive permeability across apical to basolateral side in dog MDCK-MDR1 cells; format: ADME, cell-based, Canis lupus familiaris
[16] = biological target: T2, Aryl hydrocarbon receptor (Homo sapiens, UniProt P35869); assay: Activation of AhR (unknown origin) at 1 to 10 uM; conditions: dose 1-10 µM
T2 sequence (P35869 whole entry): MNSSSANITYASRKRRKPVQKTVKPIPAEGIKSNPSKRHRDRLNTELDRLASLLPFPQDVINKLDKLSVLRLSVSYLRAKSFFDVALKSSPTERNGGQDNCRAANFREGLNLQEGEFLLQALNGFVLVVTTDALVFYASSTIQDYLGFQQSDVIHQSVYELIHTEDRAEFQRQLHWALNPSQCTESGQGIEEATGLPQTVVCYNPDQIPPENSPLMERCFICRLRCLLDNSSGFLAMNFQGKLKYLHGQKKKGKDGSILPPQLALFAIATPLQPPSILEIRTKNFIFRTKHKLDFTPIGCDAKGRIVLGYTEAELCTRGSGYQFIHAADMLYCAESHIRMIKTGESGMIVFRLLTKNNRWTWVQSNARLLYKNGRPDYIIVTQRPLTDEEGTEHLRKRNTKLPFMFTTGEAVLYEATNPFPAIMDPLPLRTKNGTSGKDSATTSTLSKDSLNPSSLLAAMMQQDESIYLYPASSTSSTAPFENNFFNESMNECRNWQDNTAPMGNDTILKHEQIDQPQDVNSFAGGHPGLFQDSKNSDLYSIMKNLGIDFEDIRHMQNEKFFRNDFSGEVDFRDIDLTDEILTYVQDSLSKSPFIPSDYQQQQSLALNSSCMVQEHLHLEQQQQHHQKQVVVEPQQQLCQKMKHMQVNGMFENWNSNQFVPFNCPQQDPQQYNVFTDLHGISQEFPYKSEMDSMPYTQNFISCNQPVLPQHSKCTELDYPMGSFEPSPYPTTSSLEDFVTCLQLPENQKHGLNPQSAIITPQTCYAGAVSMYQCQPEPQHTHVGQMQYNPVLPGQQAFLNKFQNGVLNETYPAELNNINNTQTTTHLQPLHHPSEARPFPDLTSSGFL

[17] = biological target: Voltage-gated inwardly rectifying potassium channel KCNH2 (Homo sapiens, UniProt Q12809); assay: Inhibition of hERG; format: toxicity
Sequence of Voltage-gated inwardly rectifying potassium channel KCNH2 (Q12809 whole entry): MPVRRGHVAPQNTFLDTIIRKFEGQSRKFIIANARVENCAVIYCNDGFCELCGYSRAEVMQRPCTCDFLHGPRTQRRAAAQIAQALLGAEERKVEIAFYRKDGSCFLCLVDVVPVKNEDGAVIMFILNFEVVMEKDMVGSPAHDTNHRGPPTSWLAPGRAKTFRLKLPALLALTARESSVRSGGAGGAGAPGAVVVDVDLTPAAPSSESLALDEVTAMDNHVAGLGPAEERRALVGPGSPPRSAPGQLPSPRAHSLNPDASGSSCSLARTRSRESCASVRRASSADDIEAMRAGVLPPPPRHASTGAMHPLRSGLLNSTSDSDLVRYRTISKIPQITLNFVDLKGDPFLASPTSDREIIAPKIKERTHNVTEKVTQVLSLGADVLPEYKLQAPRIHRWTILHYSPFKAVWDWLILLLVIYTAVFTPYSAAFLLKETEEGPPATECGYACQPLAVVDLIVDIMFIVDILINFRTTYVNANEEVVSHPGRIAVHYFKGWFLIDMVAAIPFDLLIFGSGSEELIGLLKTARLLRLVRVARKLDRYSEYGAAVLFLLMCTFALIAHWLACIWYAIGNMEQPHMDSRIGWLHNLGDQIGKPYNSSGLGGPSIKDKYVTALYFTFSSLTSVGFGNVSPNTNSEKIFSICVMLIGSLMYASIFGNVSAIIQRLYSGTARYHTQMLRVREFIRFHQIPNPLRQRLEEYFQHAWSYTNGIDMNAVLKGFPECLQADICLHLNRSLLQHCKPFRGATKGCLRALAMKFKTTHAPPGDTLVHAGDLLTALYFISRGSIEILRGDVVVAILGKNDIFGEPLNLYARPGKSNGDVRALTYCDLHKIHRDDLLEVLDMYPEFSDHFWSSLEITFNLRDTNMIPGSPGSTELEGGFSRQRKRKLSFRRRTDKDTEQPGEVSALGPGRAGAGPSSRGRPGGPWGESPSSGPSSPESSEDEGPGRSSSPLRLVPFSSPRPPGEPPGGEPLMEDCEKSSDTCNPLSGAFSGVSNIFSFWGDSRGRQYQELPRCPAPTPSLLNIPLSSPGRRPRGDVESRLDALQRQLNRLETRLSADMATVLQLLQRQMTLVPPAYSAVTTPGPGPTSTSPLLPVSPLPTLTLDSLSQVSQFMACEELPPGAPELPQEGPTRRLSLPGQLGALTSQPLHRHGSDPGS

[18] = Toxicity in NSG mouse xenografted with human MOLM-13 cells assessed as change in body weight at 0.031 to 0.25 mg/kg,po administrated daily for 10 days relative to control; format: organism-based; conditions: in vivo, 240 h, dose 0.031-0.25 mg/kg, time 10 day
[19] = Equilibrium solubility of compound in PBS at pH 7 incubated for 2 to 5 days by HPLC analysis; format: physicochemical; conditions: time 2-5 day
[20] = Half life in C57BL mouse at 2 mg/kg,iv measured upto 24 hrs by LC-MS/MS analysis; format: ADME, organism-based; conditions: in vivo
[21] = Half life in rat hepatocyte; format: ADME, cell-based; conditions: hepatocytes
[22] = Metabolic stability in human liver microsomes assessed as half life incubated upto 60 mins in presence of NADPH by LC-MS/MS analysis; format: ADME, Microsome
PXR (NR1I2) [23] = biological target: T1, PXR (NR1I2); assay: Activation of PXR (unknown origin) assessed as fold change at 10 uM relative to control; format: ADME; conditions: read-out: FC
[24] = Equilibrium solubility of compound in FaSSIF at pH 6.5 using crystalline form incubated for 2 to 5 days by HPLC analysis; format: ADME; conditions: time 2-5 day
[25] = Metabolic stability in mouse liver microsomes assessed as half life incubated upto 60 mins in presence of NADPH by LC-MS/MS analysis; format: ADME, Microsome
CYP3A4 = CYP3A4 (Homo sapiens, UniProt P08684); assay: Induction of CYP3A4 in cryopreserved human hepatocytes using midazolam as substrate assessed as fold change at 10 uM relative to control; format: ADME, cell-based, Hepatocyte; conditions: probe midazolam, read-out: FC
Sequence of CYP3A4 (P08684 whole entry): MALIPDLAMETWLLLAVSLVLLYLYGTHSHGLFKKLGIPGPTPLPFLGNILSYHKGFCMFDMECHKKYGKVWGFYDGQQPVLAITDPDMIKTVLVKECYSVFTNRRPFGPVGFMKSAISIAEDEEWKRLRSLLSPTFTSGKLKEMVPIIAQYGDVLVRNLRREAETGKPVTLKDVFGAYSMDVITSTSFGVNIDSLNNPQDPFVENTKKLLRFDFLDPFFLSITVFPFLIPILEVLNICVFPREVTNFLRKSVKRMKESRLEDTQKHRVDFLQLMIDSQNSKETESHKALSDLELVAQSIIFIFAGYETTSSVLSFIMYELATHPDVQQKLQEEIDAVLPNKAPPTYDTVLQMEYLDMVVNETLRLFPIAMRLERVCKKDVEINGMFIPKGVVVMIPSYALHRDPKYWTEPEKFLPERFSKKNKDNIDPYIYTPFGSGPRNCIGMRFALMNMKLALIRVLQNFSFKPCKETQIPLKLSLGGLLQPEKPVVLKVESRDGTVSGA

[26] = Half life in monkey hepatocyte; format: ADME, cell-based, Macaca mulatta; conditions: rhesus monkey, hepatocytes
[27] = biological target: T3, AhR (aryl hydrocarbon receptor) (Homo sapiens, UniProt P35869); assay: Activation of AhR (unknown origin) assessed as fold change at 1 to 10 uM relative to control; conditions: dose 1-10 µM, read-out: FC
T3 sequence (P35869 whole entry): T2 sequence (P35869 whole entry)

[28] = Inhibition of Calcium ion channel (unknown origin); set-up: species or system Homo sapiens

## CCn1c(CO)nn(-c2cc3c(C(C)C)cn(-c4ccccc4C)c(=O)c3cc2F)c1=O
MOLM-13 [1]
  inhibition in vivo at 0.125 mg/kg: 92%
[2]
  logD: 2.7
[3]
  half-life: 0.958 h
[4]
  solubility thermodynamic: 25 µg/mL (≈ 57.3 µM)
[5]
  bioavailability: 88%
[6]
  Cmax: 6200 ng/mL
[7]
  half-life: > 3 h
[8]
  half-life: 0.242 h
MOLM-13 [9]
  inhibition in vivo at 0.062 mg/kg: 75%
[10]
  Kd: 0.00222 µM
[11]
  fraction unbound at 6.5 h, 1 µM: 0.099
[12]
  half-life: > 6.18 h
[13]
  half-life: > 3 h
PXR (NR1I2) [14]
  fold induction at 1 µM: 3.2
[15]
  Papp A→B: 33.1 ×10⁻⁶ cm/s
[16]
  Activity: Not Active
[17]
  IC50: > 10 µM
[18]
  Activity: Toxic
[19]
  solubility thermodynamic: 371 µM (≈ 162 µg/mL)
[20]
  half-life: 5.7 h
[21]
  half-life: > 6.18 h
[22]
  half-life: > 3 h
PXR (NR1I2) [23]
  fold induction at 10 µM: 7.4
[24]
  solubility thermodynamic: 67 µg/mL (≈ 153 µM)
[25]
  half-life: > 3 h
CYP3A4
  fold induction at 10 µM: 2.5
[26]
  half-life: > 6.18 h
[27]
  fold induction: < 2
[28]
  IC50: > 10 µM
